Measurements taken from US20090209507A1, “15-O-Desmethylmacbecin Derivatives and Their Use in the Treatment of Cancer or B-Cell Malignancies” (priority 2006, published 2009).

Key:
[1] = target: terminal deoxynucleotidyl transferase (Homo sapiens, UniProt P04053); conditions: cited from earlier work
[2] = tested on: Reverse transcriptase; conditions: cited from earlier work
[3] = tested on: MEXF 394NL; test: monolayer proliferation assay (modified propidium iodide assay), MEXF 394NL; type: cell-based, human; conditions: MEXF 394NL (Melanoma), 4 days continuous exposure
Description: (§1) In vitro evaluation of compounds for anticancer activity in a panel of human tumour cell lines in a monolayer proliferation assay was carried out at the Oncotest Testing Facility, Institute for Experimental Oncology, Oncotest GmbH, Freiburg.
(§2) The Oncotest cell lines were established from human tumor xenografts as described by Roth et al., (1999). The origin of the donor xenografts was described by Fiebig et al., (1999). Other cell lines are either obtained from the NCI (DU145, MCF-7) or purchased from DSMZ, Braunschweig, Germany.
(§3) All cell lines, unless otherwise specified, were grown at 37° C. in a humidified atmosphere (95% air, 5% CO2) in a ‘ready-mix’ medium containing RPMI 1640 medium, 10% fetal calf serum, and 0.1 mg/mL gentamicin (PAA, Cölbe, Germany).
(§4) A modified propidium iodide assay was used to assess the effects of the test compound(s) on the growth of the human tumour cell lines (Dengler et al., (1995)).
(§5) Briefly, cells were harvested from exponential phase cultures by trypsinization, counted and plated in 96 well flat-bottomed microtitre plates at a cell density dependent on the cell line (5-10.000 viable cells/well). […] After thawing the plates, fluorescence was measured using the Cytofluor 4000 microplate reader (excitation 530 nm, emission 620 nm), giving a direct relationship to the total number of viable cells.
(§6) Growth inhibition is expressed as treated/control×100 (% T/C). […]

[4] = tested on: CXF HT29; test: monolayer proliferation assay (modified propidium iodide assay), CXF HT29; type: cell-based, human; conditions: CXF HT29 (Colon), 4 days continuous exposure
Description: as §1, §2, §3, §4, §5, §6

[5] = tested on: MCF-7; test: monolayer proliferation assay (modified propidium iodide assay), MCF-7; type: cell-based, human; conditions: MCF-7 (Breast), 4 days continuous exposure
Description: as §1, §2, §3, §4, §5, §6

[6] = tested on: DU145; test: monolayer proliferation assay (modified propidium iodide assay), DU145; type: cell-based, human; conditions: DU145 (Prostate - PTEN positive), 4 days continuous exposure
Description: as §1, §2, §3, §4, §5, §6

[7] = tested on: CNXF 498NL; test: monolayer proliferation assay (modified propidium iodide assay), CNXF 498NL; type: cell-based, human; conditions: CNXF 498NL (CNS), 4 days continuous exposure
Description: as §1, §2, §3, §4, §5, §6

[8] = tested on: LXF 1121L; test: monolayer proliferation assay (modified propidium iodide assay), LXF 1121L; type: cell-based, human; conditions: LXF 1121L (Lung, large cell ca), 4 days continuous exposure
Description: as §1, §2, §3, §4, §5, §6

Chain of terminal deoxynucleotidyl transferase (P04053 whole entry, species assumed): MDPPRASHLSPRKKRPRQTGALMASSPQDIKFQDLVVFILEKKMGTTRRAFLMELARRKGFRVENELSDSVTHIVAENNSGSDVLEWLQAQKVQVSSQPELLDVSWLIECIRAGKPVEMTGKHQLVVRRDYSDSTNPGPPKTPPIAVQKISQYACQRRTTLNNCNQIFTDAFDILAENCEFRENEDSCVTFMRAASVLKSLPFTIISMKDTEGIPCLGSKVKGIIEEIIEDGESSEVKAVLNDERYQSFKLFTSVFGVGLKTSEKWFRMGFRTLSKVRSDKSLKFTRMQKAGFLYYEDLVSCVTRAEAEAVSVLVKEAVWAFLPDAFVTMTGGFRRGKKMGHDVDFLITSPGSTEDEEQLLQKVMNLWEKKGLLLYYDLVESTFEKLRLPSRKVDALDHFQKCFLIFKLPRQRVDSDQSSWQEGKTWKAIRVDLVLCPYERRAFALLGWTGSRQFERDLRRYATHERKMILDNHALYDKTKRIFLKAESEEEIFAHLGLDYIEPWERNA

Row | SMILES | terminal deoxynucleotidyl transferase activity inhibition [1] | Reverse transcriptase activity inhibition [2] | Test/Control (%) at drug concentration ([3]; 1 μg/mL) [%] | Test/Control (%) at drug concentration ([3]; 10 μg/mL) [%] | Test/Control (%) at drug concentration ([4]; 1 μg/mL) [%] | Test/Control (%) at drug concentration ([4]; 10 μg/mL) [%] | Test/Control (%) at drug concentration ([5]; 1 μg/mL) [%] | Test/Control (%) at drug concentration ([5]; 10 μg/mL) [%] | Test/Control (%) at drug concentration ([6]; 1 μg/mL) [%] | Test/Control (%) at drug concentration ([6]; 10 μg/mL) [%] | Test/Control (%) at drug concentration ([7]; 1 μg/mL) [%] | Test/Control (%) at drug concentration ([7]; 10 μg/mL) [%] | Test/Control (%) at drug concentration ([8]; 1 μg/mL) [%] | Test/Control (%) at drug concentration ([8]; 10 μg/mL) [%]
1 | CO[C@H]1[C@@H](OC)C[C@H](C)[C@@H](OC)C2=CC(=O)C=C(NC(=O)/C(C)=C/C=C\[C@H](C)[C@@H](OC(N)=O)/C(C)=C/[C@@H]1C)C2=O [Macbecin, macbecin] | not inhibited | not inhibited | – | – | – | – | – | – | – | – | – | – | – | –
2 | CO[C@H]1[C@@H](OC)C[C@H](C)[C@@H](O)C2=CC(=O)C=C(NC(=O)/C(C)=C/C=C\[C@H](C)[C@@H](OC(N)=O)/C(C)=C/[C@@H]1C)C2=O [Compound 14, 15-O-desmethylmacbecin] | – | – | 17 | 2.3 | 58.3 | 7.7 | 65.3 | 15.3 | 49.7 | 6 | 49.3 | 4.7 | 63 | 6
